Reference: patent US11723883B2, “Hydroxynorketamine for the use in the treatment of depression” (DEVELCO PHARMA SCHWEIZ AG, priority 2017, dated 2023)

Legend:
[1] = Dose-escalation pharmacokinetics and metabolism study in 15 healthy subjects (LC-MS/MS)
Description: (§1) A dose-escalation study was performed in five consecutive periods (7 days wash-out) in 15 healthy subjects (5 females, 20-25, BMI 19.4-27.6 kg/m2). The racemic analytes were measured using validated LC-MS/MS methods according to Hasan et al., 2017 (Hasan et al., Quantitative chiral and achiral determination of ketamine and its metabolites by LC-MS/MS in human serum, urine and fecal samples, Journal of Pharmaceutical and Biomedical Analysis, 2017, 139, 87-97).
(§2) In addition, 5 mg ketamine (in form of ketamine hydrochloride) solution was intravenously administered within 30 min in fasting state.
The pharmacokinetics of ketamine and its metabolites norketamine and hydroxynorketamine were measured and depicted in the following table 1. AUC stands for the area under the curve, Cmax stands for the maximum plasma concentration, Tmax stands for the time to Cmax, F stands for absolute bioavailability, T1/2 stands for the apparent terminal half-life, AUCNK/K for the ratio of AUCNK to AUCK and AUCHNK/K for the ratio of AUCHNK to AUCK.
The maximum concentration (Cmax) and the time of maximum concentration (Tmax) were obtained directly from the measured concentration-time curves.
The area under the concentrations-time curve (AUC) was calculated with the measured data points from the time of administration until the last quantifiable concentration by the trapezoidal formula. The AUC was assessed up to the last sampling time above the limit of quantification and is extrapolated to infinity to obtain the AUC values.
Apparent Terminal half-life (T1/2) was calculated by the following equation T1/2=ln 2/λz.
The terminal elimination rate constant (λz) was evaluated from the terminal slope by log-linear regression analysis.
The absolute bioavailability (F) was calculated by the following equation Fabs=AUCoral/AUCiv×doseiv/doseoral. 4.2 Safety

[2] = Safety: adverse events in the dose-escalation study in healthy subjects
Description: as §1, §2
An adverse event (AE) therefore can be any unfavorable and unintended sign including an abnormal laboratory (or vital, ECG etc.) finding, symptom or disease temporally associated with the use of a medicinal (investigational) product, whether or not related to the medicinal (investigational) product.
A serious adverse event (SAE) is defined as any untoward medical occurrence that at any dose • results in death, or • is life-threatening, or • requires hospitalization or prolongation of existing hospitalization, or • results in persistent or significant disability/incapacity, or • is a congenital anomaly/birth defect
Adverse events (AE) were detected both by a standardized questionnaire on tolerability and by querying the subjects at the scheduled times. Furthermore, the subjects were asked to report any AE spontaneously.

[3] = tested on: patients with major depressive disorder and bipolar depression; conditions: single intravenous 40-minute infusion; lasting 1 week; Zarate et al., 2012; cited from earlier work
mice = conditions: Zanos et al., 2016, cited from earlier work
[4] = 5 mg ketamine i.v. infusion (30 min), fasting
[5] = Treatment A ketamine 5 mg i.v., AEs certainly, probably or possibly related

Structure (SMILES) | CL/F of ketamine [1, 4] | CLM of ketamine [1, 4] | CLintestinal of ketamine [1, 4] | AUC ([1]; both, human, plasma, iv, 5 mg) | CL renal ([1]; both, human, plasma, iv, 5 mg) | Cmax ([1]; both, human, plasma, iv, 5 mg) | MRT ([1]; both, human, plasma, iv, 5 mg) | Vd ([1]; both, human, plasma, iv, 5 mg) | half-life ([1]; both, human, plasma, iv, 5 mg) | Number of AEs ([2]; Treatment A (ketamine 5 mg i.v.)) | Number of subjects reporting dizziness (nervous system disorders) [2, 5] | Number of subjects reporting palpitation (cardiac disorders) [2, 5] | Number of subjects reporting tachycardia (cardiac disorder) [2, 5] | Percent of subjects reporting dizziness (nervous system disorders) [2, 5] | Percent of subjects reporting palpitation (cardiac disorders) [2, 5] | Percent of subjects reporting tachycardia (cardiac disorder) [2, 5] | improvement in patients with major depressive disorder and bipolar depression [3] | ketamine-related side effects (mice) | antidepressant-related actions (mice; independent of NMDR-inhibition)
CNC1(c2ccccc2Cl)CCCCC1=O (racemic) [ketamine, 2-(2-chlorophenyl)-2-(methylamino) cyclohexan-1-one] | 1.67 ± 0.380 L/min | 268 ± 75.6 mL/min | 0.046 ± 0.097 mL/min | 52.3 ± 12.2 ng·h/mL | 33.6 ± 36.5 mL/min | 29.9 ± 8.48 ng/mL | 4.68 ± 2.01 h | 6.58 ± 3.07 L/kg | 5.89 ± 2.61 h | 10 | 6 | 1 | 1 | 40% | 7% | 7% | rapid improvement |  | 
N[C@@]1(c2ccccc2Cl)CCC[C@@H](O)C1=O [(2R,6R)-hydroxynorketamine] |  |  |  |  |  |  |  |  |  |  |  |  |  |  |  |  |  | lack ketamine-related side effects | exerts antidepressant-related actions
